Source: ChEMBL document CHEMBL3885881, “DrugMatrix”

Species on record: Rattus norvegicus
Test: DrugMatrix - Regimen: Daily Repeat
Type: toxicity, organism-based, Sprague-Dawley
Design: regimen Daily Repeat, gender Male, age 6-8 weeks
Conditions: in vivo, po, route oral GAVAGE, vehicle .5 % CMC; for ABSOLUTE BASOPHIL / ABSOLUTE EOSINOPHIL / ABSOLUTE LYMPHOCYTE / ABSOLUTE MONOCYTE / ABSOLUTE SEGMENTED NEUTROPHIL / BASOPHIL / EOSINOPHIL / ERYTHROCYTE COUNT / HEMATOCRIT / HEMOGLOBIN / LEUKOCYTE COUNT / LYMPHOCYTE / MEAN CORPUSCULAR HEMOGLOBIN / MEAN CORPUSCULAR HEMOGLOBIN CONCENTRATION / MEAN CORPUSCULAR VOLUME / MONOCYTE / NEUTROPHIL / NUCLEATED RED BLOOD CELLS / PLATELET COUNT: tissue Blood; for ALANINE AMINOTRANSFERASE / ALBUMIN / ALKALINE PHOSPHATASE / ASPARTATE AMINOTRANSFERASE / BLOOD UREA NITROGEN / CARBON DIOXIDE / CHLORIDE / CHOLESTEROL / CREATINE PHOSPHOKINASE / CREATININE / GLUCOSE / LACTATE DEHYDROGENASE / LIPASE / PHOSPHORUS / POTASSIUM / SODIUM / TOTAL BILIRUBIN / TOTAL PROTEIN / URIC ACID: tissue Plasma
[1] = 25 mg/kg, 72 h, dose level Low, time 3 day
[2] = 25 mg/kg, 120 h, dose level Low, time 5 day
[3] = 300 mg/kg, 72 h, dose level High, time 3 day
[4] = 300 mg/kg, 120 h, dose level High, time 5 day

With `CC(=O)S[C@@H]1CC2=CC(=O)CC[C@]2(C)[C@H]2CC[C@@]3(C)[C@@H](CC[C@@]34CCC(=O)O4)[C@H]12` [SPIRONOLACTONE] the “ABSOLUTE BASOPHIL” value [1] was 0 CELLS/uL, the “ABSOLUTE EOSINOPHIL” value [1] was 0 CELLS/uL and the “ABSOLUTE LYMPHOCYTE” value [1] was 11038 CELLS/uL. For the same compound, the “ABSOLUTE MONOCYTE” value [1] was 168 CELLS/uL, the “ABSOLUTE SEGMENTED NEUTROPHIL” value [1] was 694 CELLS/uL and the BASOPHIL [1] was 0%. For the same compound, the EOSINOPHIL [1] was 0%, the “ERYTHROCYTE COUNT” value [1] was 5.44 x10E6/uL and the HEMATOCRIT [1] was 34.63%. For the same compound, the HEMOGLOBIN [1] was 13.87 G/DL, the “LEUKOCYTE COUNT” value [1] was 11.9 x10E3/uL and the LYMPHOCYTE [1] was 92.67%. For the same compound, the “MEAN CORPUSCULAR HEMOGLOBIN” value [1] was 25.53 pg, the “MEAN CORPUSCULAR HEMOGLOBIN CONCENTRATION” value [1] was 40.03 G/DL and the “MEAN CORPUSCULAR VOLUME” value [1] was 63.7 fL. The MONOCYTE [1] was 1.33%, the NEUTROPHIL [1] was 6% and the “NUCLEATED RED BLOOD CELLS” value [1] was 0.67 /100WBC. The “PLATELET COUNT” value [1] was 1277 x10E3/uL, the “ALANINE AMINOTRANSFERASE” value [1] was 45.67 u/L and the ALBUMIN [1] was 4.3 G/DL. For the same compound, the “ALKALINE PHOSPHATASE” value [1] was 295 u/L, the “ASPARTATE AMINOTRANSFERASE” value [1] was 77.33 u/L and the “BLOOD UREA NITROGEN” value [1] was 15.33 mg/dL. The “CARBON DIOXIDE” value [1] was 28 mmol/L, the CHLORIDE [1] was 101.33 MEQ/L and the CHOLESTEROL [1] was 76.33 mg/dL. For the same compound, the “CREATINE PHOSPHOKINASE” value [1] was 188.33 u/L, the CREATININE [1] was 0.21 mg/dL and the GLUCOSE [1] was 169.33 mg/dL. The “LACTATE DEHYDROGENASE” value [1] was 202.67 u/L, the LIPASE [1] was 9.67 u/L and the PHOSPHORUS [1] was 12.5 mg/dL. For the same compound, the POTASSIUM [1] was 6.74 MEQ/L, the SODIUM [1] was 146.03 MEQ/L and the “TOTAL BILIRUBIN” value [1] was 0.2 mg/dL. For the same compound, the “TOTAL PROTEIN” value [1] was 5.83 G/DL, the “URIC ACID” value [1] was 1.8 mg/dL and the “ABSOLUTE BASOPHIL” value [2] was 0 CELLS/uL. For the same compound, the “ABSOLUTE EOSINOPHIL” value [2] was 0 CELLS/uL, the “ABSOLUTE LYMPHOCYTE” value [2] was 13033 CELLS/uL and the “ABSOLUTE MONOCYTE” value [2] was 85.33 CELLS/uL. The “ABSOLUTE SEGMENTED NEUTROPHIL” value [2] was 1115 CELLS/uL, the BASOPHIL [2] was 0% and the EOSINOPHIL [2] was 0%. For the same compound, the “ERYTHROCYTE COUNT” value [2] was 5.6 x10E6/uL, the HEMATOCRIT [2] was 34.4% and the HEMOGLOBIN [2] was 13.67 G/DL. The “LEUKOCYTE COUNT” value [2] was 14.23 x10E3/uL, the LYMPHOCYTE [2] was 91.33% and the “MEAN CORPUSCULAR HEMOGLOBIN” value [2] was 24.47 pg. For the same compound, the “MEAN CORPUSCULAR HEMOGLOBIN CONCENTRATION” value [2] was 39.73 G/DL, the “MEAN CORPUSCULAR VOLUME” value [2] was 61.5 fL and the MONOCYTE [2] was 0.67%. The NEUTROPHIL [2] was 8%, the “NUCLEATED RED BLOOD CELLS” value [2] was 0 /100WBC and the “PLATELET COUNT” value [2] was 1372 x10E3/uL. For the same compound, the “ALANINE AMINOTRANSFERASE” value [2] was 48.67 u/L, the ALBUMIN [2] was 4.3 G/DL and the “ALKALINE PHOSPHATASE” value [2] was 354.67 u/L. The “ASPARTATE AMINOTRANSFERASE” value [2] was 81 u/L, the “BLOOD UREA NITROGEN” value [2] was 19 mg/dL and the “CARBON DIOXIDE” value [2] was 25.67 mmol/L. For the same compound, the CHLORIDE [2] was 103.33 MEQ/L, the CHOLESTEROL [2] was 60.33 mg/dL and the “CREATINE PHOSPHOKINASE” value [2] was 259.33 u/L. The CREATININE [2] was 0.2 mg/dL, the GLUCOSE [2] was 164.33 mg/dL and the “LACTATE DEHYDROGENASE” value [2] was 139 u/L. The LIPASE [2] was 9.67 u/L, the PHOSPHORUS [2] was 12.23 mg/dL and the POTASSIUM [2] was 6.24 MEQ/L. The SODIUM [2] was 148.03 MEQ/L, the “TOTAL BILIRUBIN” value [2] was 0.23 mg/dL and the “TOTAL PROTEIN” value [2] was 6.27 G/DL. For the same compound, the “URIC ACID” value [2] was 1.93 mg/dL, the “ABSOLUTE BASOPHIL” value [3] was 0 CELLS/uL and the “ABSOLUTE EOSINOPHIL” value [3] was 0 CELLS/uL. For the same compound, the “ABSOLUTE LYMPHOCYTE” value [3] was 10747 CELLS/uL, the “ABSOLUTE MONOCYTE” value [3] was 38 CELLS/uL and the “ABSOLUTE SEGMENTED NEUTROPHIL” value [3] was 481.67 CELLS/uL. For the same compound, the BASOPHIL [3] was 0%, the EOSINOPHIL [3] was 0% and the “ERYTHROCYTE COUNT” value [3] was 5.83 x10E6/uL. For the same compound, the HEMATOCRIT [3] was 37.33%, the HEMOGLOBIN [3] was 14.97 G/DL and the “LEUKOCYTE COUNT” value [3] was 11.27 x10E3/uL. The LYMPHOCYTE [3] was 95.33%, the “MEAN CORPUSCULAR HEMOGLOBIN” value [3] was 25.67 pg and the “MEAN CORPUSCULAR HEMOGLOBIN CONCENTRATION” value [3] was 40.07 G/DL. For the same compound, the “MEAN CORPUSCULAR VOLUME” value [3] was 64.03 fL, the MONOCYTE [3] was 0.33% and the NEUTROPHIL [3] was 4.33%. The “NUCLEATED RED BLOOD CELLS” value [3] was 0 /100WBC, the “PLATELET COUNT” value [3] was 1193 x10E3/uL and the “ALANINE AMINOTRANSFERASE” value [3] was 95 u/L. The ALBUMIN [3] was 4.27 G/DL, the “ALKALINE PHOSPHATASE” value [3] was 425.67 u/L and the “ASPARTATE AMINOTRANSFERASE” value [3] was 757 u/L. The “BLOOD UREA NITROGEN” value [3] was 16.67 mg/dL, the “CARBON DIOXIDE” value [3] was 22.67 mmol/L and the CHLORIDE [3] was 101.33 MEQ/L. For the same compound, the CHOLESTEROL [3] was 65.67 mg/dL, the “CREATINE PHOSPHOKINASE” value [3] was 5158.67 u/L and the CREATININE [3] was 0.2 mg/dL. For the same compound, the GLUCOSE [3] was 152.67 mg/dL, the “LACTATE DEHYDROGENASE” value [3] was 2756 u/L and the LIPASE [3] was 11 u/L. It also gave a PHOSPHORUS [3] of 12.67 mg/dL, a POTASSIUM [3] of 9.65 MEQ/L and an SODIUM [3] of 142.53 MEQ/L. For the same compound, the “TOTAL BILIRUBIN” value [3] was 0.3 mg/dL, the “TOTAL PROTEIN” value [3] was 6.07 G/DL and the “URIC ACID” value [3] was 3.73 mg/dL. The “ABSOLUTE BASOPHIL” value [4] was 0 CELLS/uL, the “ABSOLUTE EOSINOPHIL” value [4] was 55.67 CELLS/uL and the “ABSOLUTE LYMPHOCYTE” value [4] was 15788 CELLS/uL. The “ABSOLUTE MONOCYTE” value [4] was 55.67 CELLS/uL, the “ABSOLUTE SEGMENTED NEUTROPHIL” value [4] was 1134 CELLS/uL and the BASOPHIL [4] was 0%. The EOSINOPHIL [4] was 0.33%, the “ERYTHROCYTE COUNT” value [4] was 5.9 x10E6/uL and the HEMATOCRIT [4] was 35.17%. The HEMOGLOBIN [4] was 14.23 G/DL, the “LEUKOCYTE COUNT” value [4] was 17.03 x10E3/uL and the LYMPHOCYTE [4] was 92.67%. The “MEAN CORPUSCULAR HEMOGLOBIN” value [4] was 24.17 pg, the “MEAN CORPUSCULAR HEMOGLOBIN CONCENTRATION” value [4] was 40.47 G/DL and the “MEAN CORPUSCULAR VOLUME” value [4] was 59.6 fL. The MONOCYTE [4] was 0.33%, the NEUTROPHIL [4] was 6.67% and the “NUCLEATED RED BLOOD CELLS” value [4] was 0 /100WBC. The “PLATELET COUNT” value [4] was 1586.67 x10E3/uL, the “ALANINE AMINOTRANSFERASE” value [4] was 70.33 u/L and the ALBUMIN [4] was 4.23 G/DL. The “ALKALINE PHOSPHATASE” value [4] was 327.33 u/L, the “ASPARTATE AMINOTRANSFERASE” value [4] was 72.33 u/L and the “BLOOD UREA NITROGEN” value [4] was 17.33 mg/dL. The “CARBON DIOXIDE” value [4] was 27.33 mmol/L, the CHLORIDE [4] was 101.33 MEQ/L and the CHOLESTEROL [4] was 60.67 mg/dL. For the same compound, the “CREATINE PHOSPHOKINASE” value [4] was 189.67 u/L, the CREATININE [4] was 0.21 mg/dL and the GLUCOSE [4] was 158.33 mg/dL. The “LACTATE DEHYDROGENASE” value [4] was 134.33 u/L, the LIPASE [4] was 10.33 u/L and the PHOSPHORUS [4] was 11.07 mg/dL. The POTASSIUM [4] was 6.24 MEQ/L, the SODIUM [4] was 145.57 MEQ/L and the “TOTAL BILIRUBIN” value [4] was 0.2 mg/dL. The “TOTAL PROTEIN” value [4] was 6.17 G/DL and the “URIC ACID” value [4] was 2 mg/dL.
